Assay results as given in patent publication US20230233617A1, “METHODS FOR DIFFERENTIATING STEM CELLS INTO DOPAMINERGIC PROGENITOR CELLS” (JZ CELL TECHNOLOGIES AB, priority 2020, published 2023).
Entries after “also recorded” stand apart in the source; their conditions may differ.

Experiments:
hPSC-derived NSCs = assay: Ventral regional identity of hPSC-derived NSCs at 9 DDC in dSMADi+SAG conditions (NKX2.1, LMX1A, PHOX2B, NKX2.2); assay type: cell-based, human; details: for identity imposed by RA analogue with inhibition of CYP26 activity: 500 nM analogue for 48-hours plus 500 nM R115866, 9 DDC; for identity imposed by RA analogue: 500 nM for 48-hours; for identity imposed by RA analogue / identity of NSCs: dSMADi+SAG; for identity imposed by RA analogue / identity of cells after inhibiting CYP26 activity / identity of NSCs: 9 DDC
CYP26 = details: cited from earlier work
β-catenin = assay: β-CATENIN nuclear levels in cultures at 2 DDC; assay type: cell-based, human; details: dSMADi+SAG
Text: FIG. 2: Specification of NSC with ventral midbrain identity using RA and SHH signaling. (a) Schematic of hPSCs differentiation with timeline of treatment with RA and activator of SHH signaling (SAG) (top). Immunocytochemistry for indicated markers at 9 DDC in cultures differentiated in dSMADi+SAG-condition and pulsed with RA for 1-, 2- or 4-days (bottom). (b) Relative gene expression (FPKM) of indicated genes in 9 DDC cultures differentiated in dSMADi+SAG-conditions and treated with RA for the indicated time. (c) Heatmap and hierarchical clustering of differentially expressed genes of 9 DDC cultures differentiated in dSMADi+SAG-condition and treated with RA for the indicated time. (d) Schematic of gene expression profiles defining distinct ventral progenitors in the diencephalon (Di), midbrain (MB) and hindbrain (HB) positions. (e) Expression of genes associated with the indicated regional progenitors at 14 DDC in cultures differentiated in dSMADi+SAG+RA^2D condition. (f) Immunocytochemistry for β-CATENIN (left) and boxplots of β-CATENIN nuclear levels (right) in cultures at 2 DDC differentiated in dSMADi+SAG-condition (control) and treated with RA or CHIR99021. Boxplot, whiskers define 5th and 95th percentile. Asterisks, Student t test; **p<0.01, ***p<0.001. (g) Immunocytochemistry for the indicated markers in cultures at 14 DDC differentiated in dSMADi+SAG+RA^2D condition. […]

[1] = tested on: hPSC-derived vMB progenitors; assay: Neurogenesis and mDA neuron yield in differentiating hPSC cultures (HuCD, TuJ1, TH, GABA immunocytochemistry, electrophysiology); assay type: cell-based, human; details: with SAG
Text: A unique feature of mDA neurons is that they originate from initially non-neuronal floor plate (FP) cells at the ventral midline of the MB, and progenitors must acquire neuronal potential prior to differentiation into neurons^30,44. Few markers distinguish between these states, but downregulation of SHH and upregulation pro-neural bHLH proteins over time correlate with this transition^44. […] In RA^2D+SAG cultures at 21 DDC, ˜30% of DAPI^+ cells accounted for HuCD^+ neurons (FIG. 4d) and many of these had initiated expression of TH (FIG. 4c). When we instead used CHIR99021+SAG to specify LMX1A^+/NKX2.1^− vMB progenitors (FIG. 3b), cells initiated neurogenesis at around 17 DDC (FIG. 4c, d) which is consistent with previous studies^9,13. At 21 DDC, HuCD^+ neurons constituted ˜10% of total cells and few neurons expressed TH (FIG. 4c, d).
TH^+ neurons acquired a progressively more advanced neuronal morphology with a progressive outgrowth of TH^+ axonal processes in RA^2D+SAG cultures between 30-45 DDC (FIG. 4e, g, h; FIG. 8f (Supplementary FIG. 2f)). TH^+ neurons expressed mDA neuron markers LMX1A, LMX1B, FOXA2, NURR1, and OTX2 at 30-35 DDC (FIG. 4e). […] TH^+ neurons also expressed the mature neuronal marker SYNAPTOPHYSIN and the monoaminergic marker VMAT2 (FIG. 40. A subset of cells expressed GIRK2 or CALBINDIN indicating the presence of both A9- and A10-like subtypes of mDA neurons^45 (FIG. 4f). At 35 DDC, ˜80% of neurons expressed TH^+ which corresponded to ˜65% of total DAPI^+ cells (FIG. 4i, j). ˜10% of neurons expressed GABA (FIG. 4i, j), and some of these co-expressed TH (FIG. 10c (Supplementary FIG. 4c)). Only rare neurons expressing 5-HT or the MN marker PERIPHERIN were detected (FIG. 4i, j). High performance liquid chromatography (HPLC) analyses at 42 DDC established that neurons produced and released dopamine (FIG. 4k, I) but not serotonin (5-HT) or noradrenaline (NA) (FIG. 4k). […] Very few cells expressed Ki67 or phospho-histone H3 at 35-40 DDC indicating low mitotic activity after long-term culturing of cells (FIG. 4i). Functional maturation of mDA neurons in vitro can be monitored by determining the time when hPSC-derived mDA neurons acquire spontaneous action potentials, evoked action potentials and voltage-dependent Na^+ and K^+ currents, and these traits were previously reported to be attained after ˜60 days of culture of FACS-enriched mDA neurons (25+36 days: before/after sorting) using current state-of-the-art protocols^7. […] Neurons showing both spontaneous (FIG. 4m) and evoked action potentials (FIG. 4n) could be recorded at 40 DDC.
80-90% confluent PSCs cultures were rinsed twice with PBS, treated with EDTA (0.5 mM in PBS) for 5-7 min, and resuspended into single cell suspension in PBS. Cells were spin down at 400 g and resuspended in N2B27 medium (DMEM/F12: Neurobasal (1:1), 0.5×N2 and 0.5×B27 (plus vitamin A) supplements, 1×nonessential amino acids, 1% GlutaMAX, 55 μM β-mercaptoethanol-all from Thermo Fisher Scientific) containing 5 μM SB431542 (Miltenyi Biotech) and 2.5 μM DMH1 (Santa Cruz Biotech) (dual SMAD inhibition), and 10 μM ROCK inhibitor (for the first 48 hours after seeding). Cells were seeded on VTN (2 μg/cm^2) and Fibronectin (FN) (2 μg/cm^2) (Sigma) coated surface at a density of 60,000-80,000 cells/cm^2 for RA- and RA-analogues based experiments, and 20,000 cells/cm^2 for CHIR99021 experiments. SAG1.3 (Santa Cruz Biotechnology), CHIR99021 (Miltenyi Biotech), all-trans RA, 9-cis RA, 13-cis RA, Tazarotenic acid, R115866 (all Sigma), EC23 (Amsbio) were used at concentrations and time points described in the result section. For mDA neuron differentiation (see schematic drawing FIG. 4) neural progenitors were mechanically dissociated at 9 DDC with Stem Cell Passaging Tool (Thermo Fisher Scientific) and seeded at 1:3 ratio in N2B27 medium containing 10 μM ROCK inhibitor (for first 48 hours after dissociation) on VTN and FN coated surfaces. […]

[2] = tested on: hPSC-derived ventral midbrain dopaminergic progenitors; assay: Specification of caudal midbrain identity (EN1 immunocytochemistry); assay type: cell-based, human; details: RA^2D+SAG plus 5 μM CHIR99021 between 4-9DDC
Method: (a) (a) Immunocytochemical analysis of ventral MB progenitor identities at 14 DDC. […] Nuclei of cells visualized with DAPI staining. (b) Immunocytochemistry of dopaminergic neuron marker TH and caudal midbrain marker EN1 expression in 40 DDC cultures differentiated in indicated conditions.
Cells were fixed for 12 min at room temperature (RT) in 4% paraformaldehyde in PBS, rinsed 3 times in PBST (PBS with 0.1% Triton-X100), and blocked for 1 hour at RT with blocking solution (3% FCS/0.1% Triton-X100 in PBS). Cells were then incubated with primary antibodies overnight at 4° C., followed by incubation with fluorophore-conjugated secondary antibodies for 1 hour at RT. Both primary and fluorophore-conjugated secondary antibodies were diluted in blocking solution. Primary antibodies used are listed in Supplementary Table 1. Appropriate Alexa (488, 555, 647)-conjugated secondary antibodies (Molecular Probes) were used.
Mechanisms underlying specification of midbrain dopamine neuron subtypes remains poorly resolved, but is likely to involve sub-patterning of ventral midbrain dopaminergic progenitors along the mediolateral and rostro-caudal axes of the midbrain (Brignani, S, and Pasterkamp, R. J., Front. Neuroanat. 11, 1-18 (2017)). WNT1 signaling emanating from the isthmic organizer at the midbrain-hindbrain boundary establish polarity of midbrain progenitors along the rostro-caudal axis by inducing a caudal^HIGH-to-rostral^LOW expression gradient of the homeodomain proteins EN1 and EN2 (Wurst, W. and Bally-Cuif, L. Nat. Rev. Neuroscience 2, 99-108 (2001)).

Compound: CC1(C)CCSc2ccc(C#Cc3ccc(C(=O)O)cn3)cc21 [tazarotenic acid]
- identity imposed by RA analogue with inhibition of CYP26 activity (hPSC-derived NSCs): shift into a PHOX2B^+ HB identity
- identity imposed by RA analogue (hPSC-derived NSCs): LMX1A^+/NKX2.1^− vMB identity; also recorded: LMX1A+/NKX2.1− vMB identity
- susceptibility to CYP26-mediated oxidation (CYP26): substrates for CYP26-mediated oxidation

Compound: CCC(CC)C(c1ccc(Nc2nc3ccccc3s2)cc1)n1cncn1 (stereo not shown) [R115866]
- identity of cells after inhibiting CYP26 activity (hPSC-derived NSCs; 100 nM R115866, RA+SAG cultures): mix of LMX1A^+/NKX2.1^− vMB cells and PHOX2B^+ HB cells
- identity of cells after inhibiting CYP26 activity (hPSC-derived NSCs; 500 nM R115866 between 0-3 DDC, RA^1D+SAG or RA^2D+SAG cultures): PHOX2B^+ HB-identity
- identity of cells after inhibiting CYP26 activity (hPSC-derived NSCs; R115866 and SAG only (no RA)): did not suppress NKX2.1^+ FB-fate

Compound: CC1=C(/C=C/C(C)=C\C=C\C(C)=C\C(=O)O)C(C)(C)CCC1 [9-cis RA, 9-cis-Retinoic acid]
- identity imposed by RA analogue with inhibition of CYP26 activity (hPSC-derived NSCs): shift into a PHOX2B^+ HB identity
- identity imposed by RA analogue (hPSC-derived NSCs): LMX1A^+/NKX2.1^− vMB identity; also recorded: LMX1A+/NKX2.1− vMB identity
- susceptibility to CYP26-mediated oxidation (CYP26): substrates for CYP26-mediated oxidation

Compound: Cc1c[nH]c(-c2cnc(NCCNc3ccc(C#N)cn3)nc2-c2ccc(Cl)cc2Cl)n1 [CHIR99021]
- identity of NSCs (hPSC-derived NSCs; 1 μM): LMX1A^+/NKX2.1^− identity
- identity of NSCs (hPSC-derived NSCs; 0.8 and 0.6 μM): diencephalic LMX1A^+/NKX2.1^+ character
- identity of NSCs (hPSC-derived NSCs; 1.2 and 1.4 μM): NKX2.2^+/LMX1A^− presumptive HB identity
- β-catenin in nuclei (β-catenin): translocation of β-catenin into nuclei
- HuCD+ neurons as share of total DAPI+ cells ([1]; 21 DDC): ~10%
- time of initiation of neurogenesis (first neurons) [1]: around 17 DDC
- identity of ventral midbrain progenitors (EN1) ([2]; 14DDC): a majority of LMX1A^+/OTX2^+ cells also expressed EN1
- EN1 expression in TH+ dopamine neurons ([2]; 40DDC): a large fraction of TH^+ dopamine neurons expressed EN1

Compound: CC1(C)CCC(C)(C)c2cc(C#Cc3ccc(C(=O)O)cc3)ccc21 [EC23]
- identity imposed by EC23 (hPSC-derived NSCs; 200 nM EC23, EC23^1D+SAG or EC23^2D+SAG, with or without inhibition of CYP26): PHOX2B^+ HB-identity; also recorded: hindbrain identity
- EC23 concentration imposing a vMB-identity (hPSC-derived NSCs; FIG. 9c titration): 10 nM
- duration of EC23 treatment required to induce LMX1A+/NKX2.1− vMB cells (hPSC-derived NSCs; reduced EC23 concentration): 24 h
- reduction in concentration required for EC23 to induce LMX1A+/NKX2.1− vMB cells (hPSC-derived NSCs; titration, relative to 200 nM, treatment for 24 hours): 20 fold

Compound: CC1=C(/C=C/C(C)=C/C=C/C(C)=C\C(=O)O)C(C)(C)CCC1 [13-cis RA, 13-cis-Retinoic acid]
- identity imposed by RA analogue with inhibition of CYP26 activity (hPSC-derived NSCs): shift into a PHOX2B^+ HB identity
- identity imposed by RA analogue (hPSC-derived NSCs): LMX1A^+/NKX2.1^− vMB identity; also recorded: LMX1A+/NKX2.1− vMB identity
- susceptibility to CYP26-mediated oxidation (CYP26): substrates for CYP26-mediated oxidation

Compound: CNC1CCC(N(Cc2cccc(-c3ccncc3)c2)C(=O)c2sc3ccccc3c2Cl)CC1 (stereo not shown) [SAG]
- SAG concentration for effective induction of vMB NSC identity (hPSC-derived NSCs; dSMADi, SAG from day 0, 9 DDC): 50 nM
